Results from US6410575B1, “Viral treatment” (The Procter & Gamble Company, priority 1999, dated 2002).
In brackets after ≈: the same amount, converted by molar mass. Several values for one entry are separate records, joined by “and”; a condition that tells them apart may be missing. Equal values may be shown once.

Legend:
[1] = test system: HSV-2MS; assay: Herpes simplex testing in vero cells; type: cell-based, herpes simplex virus -2; details: HSV-2MS in vero cells
[2] = Toxicity values in the HHV8 test; type: cell-based; details: human, TPA-induced BCBL-1 cells; read-out: TC50 (the source's name)
Procedure: (§1) Toxicity quantification involves the XTT-based evaluation. Assays were designed to characterize the long term effects of the compounds on virus production and to characterize the longer term effects of the compounds on virus production from chronically HIV infected cells.
(§2) The DNA copy number and the toxicity value were measured and compared with Cidofovir. Kaposi's sarcoma (KS) is a cancer that is often found in people with weak immune systems, such as those taking immunosuppressants or those with AIDS. The exact nature of the disease is uncertain, but it is almost always found in association with HHV8.

[3] = test system: TPA-induced BCBL-1 cells; assay: Toxicity values in the HHV8 test; type: cell-based
Procedure: as §1, §2

[4] = test system: HIV-2 cell line, CEMROD; assay: Long term in vitro study, CEMROD; type: cell-based
Procedure: as §1
(§3) CEM-SS cells chronically infected with HIV isolate, for example SKI (CEM-SKI) are cultured in RPMI1640 tissue culture medium supplemented with 10% fetal bovine serum and antibiotics. […] CEM-SKI or other infected cells with no added drug are used as the control cells.
(§4) Cells are allowed to grow to a density of approximately 1×10^6 cells/ml and are then passaged at a 1:10 dilution. […] The drug concentration in the flask is then increased two-fold and the cells maintained as above.
(§5) The cell populations contain integrated copies of the HIV genome and constitutively produce HIV at relatively high levels or are latently infected and only produce virus after stimulation with phorbol esters, tumor necrosis factor or IL6(U1 and ACH2). Reductions in virus products were observed when quantifying supernatant reverse transcriptase activity.
The results with CEMROD cells was reported at weekly intervals.
The CEMROD cell line is a viral strain of the CEMSS cell line.

[5] = test system: CEMROD; assay: Toxicity values in the HIV-2 screening test; type: cell-based; design: Toxicity Values, sample / Toxicity Values, average: unit not given here
Text: as §1

[6] = test system: HIV-1 cell line, CEMSKI; assay: Long term in vitro study, CEMSKI; type: cell-based
Procedure: as §1, §3, §4, §5
The results with CEMSKI cells was reported at weekly intervals.
The CEMSKI cell like is a viral strain of the CEMSS cell line.

[7] = test system: Curvularia lunata; assay: Anti-fungal activity, MIC (NCCLS M-27A based); type: cell-based
Procedure: It was active against Cryptococcus neoformans and Curvularia lunata. The cidal activity for the C. neoformans is high enough that it is clear […] against this yeast. This test was conducted using a method based upon NCCLS reference method M-27A published in 1997. Solvent, medium and growth controls were set-up with the tests. Once these were read to validate the test performance, the QC fungi were read to insure they had expected results. These steps validated the test system. DMSO was used as a drug-chemical solvent. […] The 90% cut-off is necessary for azoles, which are static and not cidal. The […] or cidal level, was determined by sub-culturing a sample from each tube showing no growth.

SMILES: NC(=S)Nc1nsc(-c2ccccc2)n1
- TI or therapeutic index [1]: > 1.3
- CC50 [2]: 100 µM
- % cell control ([3]; 0.64 μM): 114.3%
- % cell control ([3]; 2 μM): 114.9%
- % cell control ([3]; 6.4 μM): 104.6%
- % cell control ([3]; 20 μM): 114.8%
- % cell control ([3]; 64 μM): 59.7%
- % cell control ([3]; 200 μM): 23.4%
- virus production (supernatant reverse transcriptase activity) ([4]; 7 μg/ml, day 4): 6593
- virus production (supernatant reverse transcriptase activity) ([4]; 7 μg/ml, day 11): 8676
- virus production (supernatant reverse transcriptase activity) ([4]; 7 μg/ml, day 18): 10912
- virus production (supernatant reverse transcriptase activity) ([4]; 7 μg/ml, day 25): 9356
- virus production (supernatant reverse transcriptase activity) ([4]; 7 μg/ml, day 32): 8803
- virus production (supernatant reverse transcriptase activity) ([4]; 7 μg/ml, day 39): 6655
- virus production (supernatant reverse transcriptase activity) ([4]; 7 μg/ml, day 46): 8280
- virus production (supernatant reverse transcriptase activity) ([4]; 7 μg/ml, day 53): 7549
- virus production (supernatant reverse transcriptase activity) ([4]; 15 μg/ml, day 4): 6815
- virus production (supernatant reverse transcriptase activity) ([4]; 15 μg/ml, day 11): 8202
- virus production (supernatant reverse transcriptase activity) ([4]; 15 μg/ml, day 18): 10389
- virus production (supernatant reverse transcriptase activity) ([4]; 15 μg/ml, day 25): 7816
- virus production (supernatant reverse transcriptase activity) ([4]; 15 μg/ml, day 32): 6672
- virus production (supernatant reverse transcriptase activity) ([4]; 15 μg/ml, day 39): 7087
- virus production (supernatant reverse transcriptase activity) ([4]; 15 μg/ml, day 46): 6457
- virus production (supernatant reverse transcriptase activity) ([4]; 15 μg/ml, day 53): 6544
- virus production (supernatant reverse transcriptase activity) ([4]; 30 μg/ml, day 4): 6626
- virus production (supernatant reverse transcriptase activity) ([4]; 30 μg/ml, day 11): 6582
- virus production (supernatant reverse transcriptase activity) ([4]; 30 μg/ml, day 18): 7494
- virus production (supernatant reverse transcriptase activity) ([4]; 30 μg/ml, day 25): 4421
- virus production (supernatant reverse transcriptase activity) ([4]; 30 μg/ml, day 32): 4056
- virus production (supernatant reverse transcriptase activity) ([4]; 30 μg/ml, day 39): 2118
- virus production (supernatant reverse transcriptase activity) ([4]; 30 μg/ml, day 46): 4117
- virus production (supernatant reverse transcriptase activity) ([4]; 30 μg/ml, day 53): 4779
- % cell control ([5]; 0.32 μg/ml): 101.6%
- Toxicity Values, average ([5]; 0.32 μg/ml): 1.197
- Toxicity Values, sample ([5]; 0.32 μg/ml): 1.181 and 1.206 and 1.203
- % cell control ([5]; 1 μg/ml): 90.9%
- Toxicity Values, average ([5]; 1 μg/ml): 1.071
- Toxicity Values, sample ([5]; 1 μg/ml): 1.055 and 1.093 and 1.066
- % cell control ([5]; 1.0 μg/ml): 75.6%
- Toxicity Values, average ([5]; 1.0 μg/ml): 0.891
- Toxicity Values, sample ([5]; 1.0 μg/ml): 0.871 and 0.881 and 0.921
- % cell control ([5]; 3.2 μg/ml): 83.1%
- Toxicity Values, average ([5]; 3.2 μg/ml): 0.979
- Toxicity Values, sample ([5]; 3.2 μg/ml): 0.987 and 0.984 and 0.965
- % cell control ([5]; 32 μg/ml): 43.2%
- Toxicity Values, average ([5]; 32 μg/ml): 0.509
- Toxicity Values, sample ([5]; 32 μg/ml): 0.518 and 0.491 and 0.517
- % cell control ([5]; 100 μg/ml): 9.8%
- Toxicity Values, average ([5]; 100 μg/ml): 0.115
- Toxicity Values, sample ([5]; 100 μg/ml): 0.113 and 0.117 and 0.115
- virus production (supernatant reverse transcriptase activity) ([6]; 7 μg/ml, day 4): 6593
- virus production (supernatant reverse transcriptase activity) ([6]; 7 μg/ml, day 11): 8676
- virus production (supernatant reverse transcriptase activity) ([6]; 7 μg/ml, day 18): 10912
- virus production (supernatant reverse transcriptase activity) ([6]; 7 μg/ml, day 25): 9356
- virus production (supernatant reverse transcriptase activity) ([6]; 7 μg/ml, day 32): 8803
- virus production (supernatant reverse transcriptase activity) ([6]; 7 μg/ml, day 39): 6655
- virus production (supernatant reverse transcriptase activity) ([6]; 7 μg/ml, day 46): 8280
- virus production (supernatant reverse transcriptase activity) ([6]; 7 μg/ml, day 53): 7549
- virus production (supernatant reverse transcriptase activity) ([6]; 15 μg/ml, day 4): 6815
- virus production (supernatant reverse transcriptase activity) ([6]; 15 μg/ml, day 11): 8202
- virus production (supernatant reverse transcriptase activity) ([6]; 15 μg/ml, day 18): 10389
- virus production (supernatant reverse transcriptase activity) ([6]; 15 μg/ml, day 25): 7816
- virus production (supernatant reverse transcriptase activity) ([6]; 15 μg/ml, day 32): 6672
- virus production (supernatant reverse transcriptase activity) ([6]; 15 μg/ml, day 39): 7087
- virus production (supernatant reverse transcriptase activity) ([6]; 15 μg/ml, day 46): 6457
- virus production (supernatant reverse transcriptase activity) ([6]; 15 μg/ml, day 53): 6544
- virus production (supernatant reverse transcriptase activity) ([6]; 30 μg/ml, day 4): 6626
- virus production (supernatant reverse transcriptase activity) ([6]; 30 μg/ml, day 11): 6582
- virus production (supernatant reverse transcriptase activity) ([6]; 30 μg/ml, day 18): 7494
- virus production (supernatant reverse transcriptase activity) ([6]; 30 μg/ml, day 25): 4421
- virus production (supernatant reverse transcriptase activity) ([6]; 30 μg/ml, day 32): 4056
- virus production (supernatant reverse transcriptase activity) ([6]; 30 μg/ml, day 39): 2118
- virus production (supernatant reverse transcriptase activity) ([6]; 30 μg/ml, day 46): 4117
- virus production (supernatant reverse transcriptase activity) ([6]; 30 μg/ml, day 53): 4779
- virus production (supernatant reverse transcriptase activity) ([6]; repeated test, 7 μg/ml, day 4): 6224
- virus production (supernatant reverse transcriptase activity) ([6]; repeated test, 7 μg/ml, day 11): 6658
- virus production (supernatant reverse transcriptase activity) ([6]; repeated test, 7 μg/ml, day 18): 7207
- virus production (supernatant reverse transcriptase activity) ([6]; repeated test, 7 μg/ml, day 25): 5725
- virus production (supernatant reverse transcriptase activity) ([6]; repeated test, 7 μg/ml, day 32): 3161
- virus production (supernatant reverse transcriptase activity) ([6]; repeated test, 7 μg/ml, day 39): 9602
- virus production (supernatant reverse transcriptase activity) ([6]; repeated test, 7 μg/ml, day 46): 13984
- virus production (supernatant reverse transcriptase activity) ([6]; repeated test, 7 μg/ml, day 53): 11578
- virus production (supernatant reverse transcriptase activity) ([6]; repeated test, 15 μg/ml, day 4): 5685
- virus production (supernatant reverse transcriptase activity) ([6]; repeated test, 15 μg/ml, day 11): 5733
- virus production (supernatant reverse transcriptase activity) ([6]; repeated test, 15 μg/ml, day 18): 6236
- virus production (supernatant reverse transcriptase activity) ([6]; repeated test, 15 μg/ml, day 25): 3752
- virus production (supernatant reverse transcriptase activity) ([6]; repeated test, 15 μg/ml, day 32): 2451
- virus production (supernatant reverse transcriptase activity) ([6]; repeated test, 15 μg/ml, day 39): 5526
- virus production (supernatant reverse transcriptase activity) ([6]; repeated test, 15 μg/ml, day 46): 12397
- virus production (supernatant reverse transcriptase activity) ([6]; repeated test, 15 μg/ml, day 53): 9662
- virus production (supernatant reverse transcriptase activity) ([6]; repeated test, 30 μg/ml, day 4): 4789
- virus production (supernatant reverse transcriptase activity) ([6]; repeated test, 30 μg/ml, day 11): 5200
- virus production (supernatant reverse transcriptase activity) ([6]; repeated test, 30 μg/ml, day 18): 4821
- virus production (supernatant reverse transcriptase activity) ([6]; repeated test, 30 μg/ml, day 25): 2418
- virus production (supernatant reverse transcriptase activity) ([6]; repeated test, 30 μg/ml, day 32): 1651
- virus production (supernatant reverse transcriptase activity) ([6]; repeated test, 30 μg/ml, day 39): 3386
- virus production (supernatant reverse transcriptase activity) ([6]; repeated test, 30 μg/ml, day 46): 9353
- virus production (supernatant reverse transcriptase activity) ([6]; repeated test, 30 μg/ml, day 53): 6466
- anti-fungal activity in vitro [7]: active
- MIC ([7]; growth inhibited or reduced at least 90%, read-out: MIC): 0.03 µg/mL (≈ 0.127 µM)
